The test has as its system KRAS G12V dependent lung adenocarcinoma cell line, NCI-H441. The test is described as follows: Cellular pERK (Thr202/Tyr204) FRET/HTRF assay. Format: cell-based. The conditions noted are these: Homo sapiens, NCI-H441, pERK HTRF, NCI-H441 cells (KRAS G12V). Summed up:
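NCI-H441 cells (KRAS G12V) were seeded and grown overnight at 37 °C, 5% CO2, then treated with compound in DMSO for 1 hr. Lysates were probed with a Eu3+-cryptate/d2 antibody sandwich against pERK1/2 Thr202/Tyr204 and read by HTRF at 665 nm; IC50 from curve fitting.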
(In general: In TR-FRET formats the signal depends on donor and acceptor labels being close together.)

Bounds are passed on as bounds.

As to `[2H]C([2H])(Oc1nc(N2CCC[C@@H]3[C@@H](F)[C@@H]32)c2cnc(-c3cc(N)cc4cc(F)c(F)c(C#C)c34)c(F)c2n1)[C@@]12CCCN1C[C@H](F)C2` [Example 53, 5-Ethynyl-6,7-difluoro-4-(8-fluoro-4-((1R,6S,7R)-7-fluoro-2-azabicyclo[4.1.0]heptan-2-yl)-2-(((2R,7aS)-2-fluorotetrahydro-1H-pyrrolizin-7a(5H)-yl)methoxy-d2)pyrido[4,3-d]pyrimidin-7-yl)naphthalen-2-amine], the IC50 was in the range of 50 to 500 nM.
As for `[2H]C([2H])(Oc1nc(N2CCC[C@H]3[C@H](F)[C@H]32)c2cnc(-c3cc(N)cc4cc(F)c(F)c(C#C)c34)c(F)c2n1)[C@@]12CCCN1C[C@H](F)C2` [Example 54, 5-Ethynyl-6,7-difluoro-4-(8-fluoro-4-((1S,6R,7S)-7-fluoro-2-azabicyclo[4.1.0]heptan-2-yl)-2-(((2R,7aS)-2-fluorotetrahydro-1H-pyrrolizin-7a(5H)-yl)methoxy-d2)pyrido[4,3-d]pyrimidin-7-yl)naphthalen-2-amine], the figure is below 50 nM; as for `[2H]C([2H])(Oc1nc(N2CCCCC[C@@H]3C[C@@H]32)c2cnc(-c3cc(N)cc4cc(F)c(F)c(C#C)c34)c(F)c2n1)[C@@]12CCCN1C[C@H](F)C2` [Example 55, 4-(4-((1S,8R)-2-azabicyclo[6.1.0]nonan-2-yl)-8-fluoro-2-(((2R,7aS)-2-fluorotetrahydro-1H-pyrrolizin-7a(5H)-yl)methoxy-d2)pyrido[4,3-d]pyrimidin-7-yl)-5-ethynyl-6,7-difluoronaphthalen-2-amine], 500 to 10000 nM.
With `[2H]C([2H])(Oc1nc(N2CCCCC[C@H]3C[C@H]32)c2cnc(-c3cc(N)cc4cc(F)c(F)c(C#C)c34)c(F)c2n1)[C@@]12CCCN1C[C@H](F)C2` [Example 56, 4-(4-((1R,8S)-2-azabicyclo[6.1.0]nonan-2-yl)-8-fluoro-2-(((2R,7aS)-2-fluorotetrahydro-1H-pyrrolizin-7a(5H)-yl)methoxy-d2)pyrido[4,3-d]pyrimidin-7-yl)-5-ethynyl-6,7-difluoronaphthalen-2-amine], the IC50 was below 50 nM.
Compound `C#Cc1c(F)ccc2cc(N)cc(-c3ncc4c(N5CCCCC6C5C6(F)F)nc(OC[C@@]56CCCN5C[C@H](F)C6)nc4c3F)c12` (stereo partly drawn) [Example 57, 4-(4-(8,8-Difluoro-2-azabicyclo[5.1.0]octan-2-yl)-8-fluoro-2-(((2R,7aS)-2-fluorotetrahydro-1H-pyrrolizin-7a(5H)-yl)methoxy)pyrido[4,3-d]pyrimidin-7-yl)-5-ethynyl-6-fluoronaphthalen-2-amine] showed an IC50 of 50 to 500 nM.
`[2H]C([2H])(Oc1nc(N2CCCCC[C@@H]3[C@@H](F)[C@@H]32)c2cnc(-c3cc(N)cc4cc(F)c(F)c(C#C)c34)c(F)c2n1)[C@@]12CCCN1C[C@H](F)C2` [Example 59, 5-Ethynyl-6,7-difluoro-4-(8-fluoro-4-((1R,8S,9R)-9-fluoro-2-azabicyclo[6.1.0]nonan-2-yl)-2-(((2R,7aS)-2-fluorotetrahydro-1H-pyrrolizin-7a(5H)-yl)methoxy-d2)pyrido[4,3-d]pyrimidin-7-yl)naphthalen-2-amine] showed an IC50 of 500 to 10000 nM.
Regarding `[2H]C([2H])(Oc1nc(N2CCCCC[C@H]3[C@H](F)[C@H]32)c2cnc(-c3cc(N)cc4cc(F)c(F)c(C#C)c34)c(F)c2n1)[C@@]12CCCN1C[C@H](F)C2` [Example 60, 5-Ethynyl-6,7-difluoro-4-(8-fluoro-4-((1S,8R,9S)-9-fluoro-2-azabicyclo[6.1.0]nonan-2-yl)-2-(((2R,7aS)-2-fluorotetrahydro-1H-pyrrolizin-7a(5H)-yl)methoxy-d2)pyrido[4,3-d]pyrimidin-7-yl)naphthalen-2-amine], the IC50 was below 50 nM.
Regarding `[2H]C([2H])(Oc1nc(N2CCOC[C@@H]3C[C@@H]32)c2cnc(-c3cc(N)cc4cc(F)c(F)c(C#C)c34)c(F)c2n1)[C@@]12CCCN1C[C@H](F)C2` [Example 61, 4-(4-((1S,7R)-5-Oxa-2-azabicyclo[5.1.0]octan-2-yl)-8-fluoro-2-(((2R,7aS)-2-fluorotetrahydro-1H-pyrrolizin-7a(5H)-yl)methoxy-d2)pyrido[4,3-d]pyrimidin-7-yl)-5-ethynyl-6,7-difluoronaphthalen-2-amine], the IC50 lay within 500 to 10000 nM.
For `[2H]C([2H])(Oc1nc(N2CCC[C@@H]3[C@H](F)[C@@H]32)c2cnc(-c3cc(N)cc4cc(F)c(F)c(C#C)c34)c(F)c2n1)[C@@]12CCCN1C[C@H](F)C2` [Example 63, 5-Ethynyl-6,7-difluoro-4-(8-fluoro-4-((1R,6S,7S)-7-fluoro-2-azabicyclo[4.1.0]heptan-2-yl)-2-(((2R,7aS)-2-fluorotetrahydro-1H-pyrrolizin-7a(5H)-yl)methoxy-d2)pyrido[4,3-d]pyrimidin-7-yl)naphthalen-2-amine] the value was 500 to 10000 nM; for `[2H]C([2H])(Oc1nc(N2CCC[C@H]3[C@@H](F)[C@H]32)c2cnc(-c3cc(N)cc4cc(F)c(F)c(C#C)c34)c(F)c2n1)[C@@]12CCCN1C[C@H](F)C2` [Example 64, 5-Ethynyl-6,7-difluoro-4-(8-fluoro-4-((1S,6R,7R)-7-fluoro-2-azabicyclo[4.1.0]heptan-2-yl)-2-(((2R,7aS)-2-fluorotetrahydro-1H-pyrrolizin-7a(5H)-yl)methoxy-d2)pyrido[4,3-d]pyrimidin-7-yl)naphthalen-2-amine], 500 to 10000 nM; for `[2H]C([2H])([2H])Oc1c(F)c(F)cc2cc(N)cc(-c3ncc4c(N5CCCC[C@H]6[C@H](F)[C@H]65)nc(OC([2H])([2H])[C@@]56CCCN5C[C@H](F)C6)nc4c3F)c12` [Example 65, 6,7-Difluoro-4-(8-fluoro-4-((1S,7R,8S)-8-fluoro-2-azabicyclo[5.1.0]octan-2-yl)-2-(((2R,7aS)-2-fluorotetrahydro-1H-pyrrolizin-7a(5H)-yl)methoxy-d2)pyrido[4,3-d]pyrimidin-7-yl)-5-(methoxy-d3)naphthalen-2-amine], below 50 nM.
As for `[2H]C([2H])(Oc1nc(N2CCCC[C@H]3[C@H](F)[C@H]32)c2cnc(-c3cc(N)cc4cc(F)c(F)c(OCF)c34)c(F)c2n1)[C@@]12CCCN1C[C@H](F)C2` [Example 66, 6,7-Difluoro-4-(8-fluoro-4-((1S,7R,8S)-8-fluoro-2-azabicyclo[5.1.0]octan-2-yl)-2-(((2R,7aS)-2-fluorotetrahydro-1H-pyrrolizin-7a(5H)-yl)methoxy-d2)pyrido[4,3-d]pyrimidin-7-yl)-5-(fluoromethoxy) naphthalen-2-amine], the figure is below 50 nM; as for `[2H]C([2H])(Oc1nc(N2CCCC[C@H]3[C@H](F)[C@H]32)c2cnc(-c3cc(N)cc4cc(F)c(F)c(OC(F)F)c34)c(F)c2n1)[C@@]12CCCN1C[C@H](F)C2` [Example 67, 5-(Difluoromethoxy)-6,7-difluoro-4-(8-fluoro-4-((1S,7R,8S)-8-fluoro-2-azabicyclo[5.1.0]octan-2-yl)-2-(((2R,7aS)-2-fluorotetrahydro-1H-pyrrolizin-7a(5H)-yl)methoxy-d2)pyrido[4,3-d]pyrimidin-7-yl)naphthalen-2-amine], below 50 nM.
Take `[2H]C([2H])([2H])Oc1c(F)ccc2cccc(-c3ncc4c(N5CCCC[C@H]6[C@H](F)[C@H]65)nc(OC([2H])([2H])[C@@]56CCCN5C[C@H](F)C6)nc4c3F)c12` [Example 68, 8-Fluoro-7-(7-fluoro-8-(methoxy-d3)naphthalen-1-yl)-4-((1S,7R,8S)-8-fluoro-2-azabicyclo[5.1.0]octan-2-yl)-2-(((2R,7aS)-2-fluorotetrahydro-1H-pyrrolizin-7a(5H)-yl)methoxy-d2)pyrido[4,3-d]pyrimidine]: the IC50 is below 50 nM.
For `[2H]C([2H])([2H])Oc1c(F)c(F)c(F)c2cc(N)cc(-c3ncc4c(N5CCCC[C@H]6[C@H](F)[C@H]65)nc(OC([2H])([2H])[C@@]56CCCN5C[C@H](F)C6)nc4c3F)c12` [Example 69, 6,7,8-Trifluoro-4-(8-fluoro-4-((1S,7R,8S)-8-fluoro-2-azabicyclo[5.1.0]octan-2-yl)-2-(((2R,7aS)-2-fluorotetrahydro-1H-pyrrolizin-7a(5H)-yl)methoxy-d2)pyrido[4,3-d]pyrimidin-7-yl)-5-(methoxy-d3)naphthalen-2-amine] the value was below 50 nM; for `[2H]C([2H])(Oc1nc(N2CCCC[C@H]3[C@H](F)[C@H]32)c2cnc(-c3cc(N)cc4c(F)c(F)c(F)c(C#C)c34)c(F)c2n1)[C@@]12CCCN1C[C@H](F)C2` [Example 70, 5-Ethynyl-6,7,8-trifluoro-4-(8-fluoro-4-((1S,7R,8S)-8-fluoro-2-azabicyclo[5.1.0]octan-2-yl)-2-(((2R,7aS)-2-fluorotetrahydro-1H-pyrrolizin-7a(5H)-yl)methoxy-d2)pyrido[4,3-d]pyrimidin-7-yl)naphthalen-2-amine], below 50 nM; for `[2H]C([2H])(F)Oc1c(F)c(F)cc2cc(N)cc(-c3ncc4c(N5CCCC[C@H]6[C@H](F)[C@H]65)nc(OC([2H])([2H])[C@@]56CCCN5C[C@H](F)C6)nc4c3F)c12` [Example 71, 6,7-Difluoro-4-(8-fluoro-4-((1S,7R,8S)-8-fluoro-2-azabicyclo[5.1.0]octan-2-yl)-2-(((2R,7aS)-2-fluorotetrahydro-1H-pyrrolizin-7a(5H)-yl)methoxy-d2)pyrido[4,3-d]pyrimidin-7-yl)-5-(fluoromethoxy-d2)naphthalen-2-amine], below 50 nM.
As for `[2H]C([2H])(F)Oc1c(F)ccc2cccc(-c3ncc4c(N5CCCC[C@H]6[C@H](F)[C@H]65)nc(OC([2H])([2H])[C@@]56CCCN5C[C@H](F)C6)nc4c3F)c12` [Example 72, 8-Fluoro-7-(7-fluoro-8-(fluoromethoxy-d2)naphthalen-1-yl)-4-((1S,7R,8S)-8-fluoro-2-azabicyclo[5.1.0]octan-2-yl)-2-(((2R,7aS)-2-fluorotetrahydro-1H-pyrrolizin-7a(5H)-yl)methoxy-d2)pyrido[4,3-d]pyrimidine], the figure is below 50 nM.

The IC50 is the midpoint of a concentration-inhibition curve. High values mean weaker potency in that assay, low ones greater potency in that assay.

(Values after US20250282799A1, “SUBSTITUTED PYRIDO[4,3-d]PYRIMIDINES AS KRAS MODULATORS” (Alterome Therapeutics, Inc., priority 2023, published 2025).)
